Experimental findings from US8652231B2, “Metal complexes; use thereof for the preparation of compositions for agricultural use” (Timac Argo International, priority 2008, dated 2014) are described below.

The data set is described as follows: Capacity of the test compounds for keeping iron soluble in the presence of calcium. It is filed as physicochemical. As to conditions: 20 mg iron per liter, pH 7, 8, 9 and 10, CaCl2 0.020 M, after three days, filtered; FIG. 1. On the procedure: For each product tested, four solutions were prepared containing 20 milligrams of iron per liter and having respectively a pH of 7, 8, 9 and 10 (the pH having been adjusted with sodium hydroxide or hydrochloric acid).
Four similar solutions were prepared, each containing calcium chloride CaCl2 (0.020 M).
After three days, these solutions were filtered through filters with a pore size of 0.045 micrometer and the iron content in the […] was determined by inductively coupled plasma emission optical spectroscopy (ICP-EOS).
The amount of iron remaining in solution in the presence of calcium ions was calculated using the following formula:
[formula] in which: [Fe]pHi+Ca represents the concentration of iron in the filtrate from a solution (containing calcium chloride 0.020 M) with pH equal to i, expressed in milligrams per liter; [Fe]pHi represents the concentration of iron in the filtrate from a solution not containing calcium with pH equal to i, expressed in milligrams per liter. Results

As for Citrate-Fe(III) Complex, the “iron remaining in solution in the presence of calcium ions” value was “undergoes precipitation in the range of pH between the values of 9 and 10”.
